How the values were obtained:
Type in all cases: physicochemical
[1] = Experimental Example 5: comparison of hygroscopicity by weight gain over time (60 to 66% RH); conditions: 24 EC
Procedure: The L-Ala-OMe HCl salt, L-Ala-OEt MsOH salt, L-Ala-OEt BsOH salt, L-Ala-OEt 4-CBS salt, L-Ala-OEt 4-EBS salt, L-Ala-OEt 2,4-DMBS salt, and L-Ala-OEt 2,5-DMBS salt were measured in an amount of about 0.3 g each, left standing in a thermostatic chamber at a temperature of 24 EC and a humidity of 60 to 66% RH, and the hygroscopicity was compared based on the weight gain with the lapse of time.

[2] = Experimental Example 4: comparison of hygroscopicity by weight gain over time (40 to 46% RH); conditions: 24° C.
Procedure: The L-Ala-OEt HCl salt, L-Ala-OEt MsOH salt, L-Ala-OEt BsOH salt, L-Ala-OEt 4-CBS salt, L-Ala-OEt 4-EBS salt, L-Ala-OEt 2,4-DMBS salt, and L-Ala-OEt 2,5-DMBS salt were measured in an amount of about 0.3 g each, left standing in a thermostatic chamber at a temperature of 24° C. and a humidity of 40 to 46% RH, and the hygroscopicity was compared based on the weight gain with the lapse of time. A part of the crystal of the L-Ala-OEt HCl salt was liquefied in 30 minutes, and the liquefied portion increased thereafter with the lapse of time. After 100 minutes, the whole mass became like a sherbet.

[3] = Experimental Example 7: evaluation of hygroscopicity by weight gain over time (60 to 66% RH); conditions: 24 EC
Procedure: The L-Ala-OMe HCl salt, L-Ala-OMe 4-EBS salt, L-Ala-OMe 2,4-DMBS salt, and L-Ala-OMe 2,5-DMBS salt were measured in an amount of about 0.3 g each, left standing in a thermostatic chamber at temperature of 24 EC and a humidity of 60 to 66% RH, and the hygroscopicity was compared based on the weight gain with the lapse of time. A part of the crystal of the L-Ala-OMe HCl salt was liquefied in 10 minutes, and the entirety became a sherbet in 20 minute. The liquefied portion increased thereafter with the lapse of time. After 80 minutes, the whole was liquefied.

Compound | weight increase rate (%) ([1]; 0 minutes) | weight increase rate (%) ([1]; 10 minutes) | weight increase rate (%) ([1]; 20 minutes) | weight increase rate (%) ([1]; 35 minutes) | weight increase rate (%) ([1]; 50 minutes) | weight increase rate (%) ([1]; 65 minutes) | weight increase rate (%) ([1]; 80 minutes) | weight increase rate (%) ([1]; 95 minutes) | weight increase rate (%) ([1]; 110 minutes) | weight increase rate (%) ([1]; 125 minutes) | weight increase rate (%) ([1]; 140 minutes) | weight increase rate (%) ([1]; 155 minutes) | weight increase rate (%) ([1]; 170 minutes) | weight increase rate (%) ([1]; 185 minutes) | weight increase rate (%) ([1]; 200 minutes) | weight increase rate (%) ([2]; 0 minutes) | weight increase rate (%) ([2]; 15 minutes) | weight increase rate (%) ([2]; 30 minutes) | weight increase rate (%) ([2]; 45 minutes) | weight increase rate (%) ([2]; 60 minutes) | also measured
CCOC(=O)[C@H](C)N.O=S(=O)(O)c1ccc(Cl)cc1 [L-Ala-OEt 4-CBS salt, L-alanine ethyl ester 4-chlorobenzenesulfonate] | 0.00% | 2.26% | 2.83% | 3.38% | 3.77% | 4.10% | 4.31% | 4.46% | 4.58% | 4.70% | 4.76% | 4.82% | 4.94% | 4.94% | 5.03% | 0.00% | 1.55% | 1.51% | 1.48% | 1.81% | weight increase rate (%) ([2]; 75 minutes): 2.01%; weight increase rate (%) ([2]; 90 minutes): 2.14%; weight increase rate (%) ([2]; 120 minutes): 2.30%; weight increase rate (%) ([2]; 150 minutes): 2.17%; weight increase rate (%) ([2]; 180 minutes): 2.27%
CCOC(=O)[C@H](C)N.O=S(=O)(O)c1ccccc1 [L-Ala-OEt BsOH salt, L-alanine ethyl ester benzenesulfonate] | 0.00% | 1.46% | 1.80% | 1.97% | 2.11% | 2.22% | 2.25% | 2.28% | 2.22% | 2.22% | 2.22% | 2.22% | 2.28% | 2.25% | 2.25% | 0.00% | 0.66% | 0.63% | 0.75% | 0.93% | weight increase rate (%) ([2]; 75 minutes): 1.05%; weight increase rate (%) ([2]; 90 minutes): 1.08%; weight increase rate (%) ([2]; 120 minutes): 1.23%; weight increase rate (%) ([2]; 150 minutes): 1.02%; weight increase rate (%) ([2]; 180 minutes): 1.08%
L-alanine ethyl ester 2,4-dimethylbenzenesulfonate [L-Ala-OEt 2,4-DMBS salt] | 0.00% | 0.00% | 0.00% | 0.00% | 0.00% | 0.00% | 0.03% | 0.00% | 0.03% | 0.03% | 0.03% | 0.03% | 0.06% | 0.06% | 0.06% | 0.00% | 0.00% | 0.00% | 0.00% | 0.03% | weight increase rate (%) ([2]; 75 minutes): 0.03%; weight increase rate (%) ([2]; 90 minutes): 0.06%; weight increase rate (%) ([2]; 120 minutes): 0.06%; weight increase rate (%) ([2]; 150 minutes): 0.06%; weight increase rate (%) ([2]; 180 minutes): 0.06%
L-alanine ethyl ester 2,5-dimethylbenzenesulfonate [L-Ala-OEt 2,5-DMBS salt] | 0.00% | 0.00% | 0.03% | 0.03% | 0.09% | 0.06% | 0.06% | 0.06% | 0.12% | 0.06% | 0.09% | 0.09% | 0.09% | 0.09% | 0.12% | 0.00% | 0.00% | 0.00% | 0.06% | 0.10% | weight increase rate (%) ([2]; 75 minutes): 0.16%; weight increase rate (%) ([2]; 90 minutes): 0.19%; weight increase rate (%) ([2]; 120 minutes): 0.26%; weight increase rate (%) ([2]; 150 minutes): 0.32%; weight increase rate (%) ([2]; 180 minutes): 0.32%
L-alanine ethyl ester 4-ethylbenzenesulfonate [L-Ala-OEt 4-EBS salt] | 0.00% | 0.09% | 0.09% | 0.15% | 0.15% | 0.15% | 0.15% | 0.15% | 0.18% | 0.15% | 0.18% | 0.18% | 0.18% | 0.15% | 0.21% | 0.00% | 0.00% | 0.00% | 0.00% | 0.13% | weight increase rate (%) ([2]; 75 minutes): 0.19%; weight increase rate (%) ([2]; 90 minutes): 0.22%; weight increase rate (%) ([2]; 120 minutes): 0.41%; weight increase rate (%) ([2]; 150 minutes): 0.54%; weight increase rate (%) ([2]; 180 minutes): 0.36%
L-alanine methyl ester 2,4-dimethylbenzenesulfonate [L-Ala-OMe 2,4-DMBS salt] | – | – | – | – | – | – | – | – | – | – | – | – | – | – | – | – | – | – | – | – | weight increase rate (%) ([3]; 0 min): 0.00%; weight increase rate (%) ([3]; 10 min): 0.33%; weight increase rate (%) ([3]; 20 min): 0.37%; weight increase rate (%) ([3]; 35 min): 0.37%; weight increase rate (%) ([3]; 50 min): 0.37%; weight increase rate (%) ([3]; 65 min): 0.37%; weight increase rate (%) ([3]; 80 min): 0.37%; weight increase rate (%) ([3]; 95 min): 0.37%; weight increase rate (%) ([3]; 110 min): 0.40%; weight increase rate (%) ([3]; 125 min): 0.43%; weight increase rate (%) ([3]; 140 min): 0.40%; weight increase rate (%) ([3]; 155 min): 0.43%; weight increase rate (%) ([3]; 170 min): 0.47%; weight increase rate (%) ([3]; 185 min): 0.50%; weight increase rate (%) ([3]; 200 min): 0.50%
L-alanine methyl ester 2,5-dimethylbenzenesulfonate [L-Ala-OMe 2,5-DMBS salt] | – | – | – | – | – | – | – | – | – | – | – | – | – | – | – | – | – | – | – | – | weight increase rate (%) ([3]; 0 min): 0.00%; weight increase rate (%) ([3]; 10 min): 0.06%; weight increase rate (%) ([3]; 20 min): 0.06%; weight increase rate (%) ([3]; 35 min): 0.06%; weight increase rate (%) ([3]; 50 min): 0.03%; weight increase rate (%) ([3]; 65 min): 0.03%; weight increase rate (%) ([3]; 80 min): 0.03%; weight increase rate (%) ([3]; 95 min): 0.00%; weight increase rate (%) ([3]; 110 min): 0.03%; weight increase rate (%) ([3]; 125 min): 0.06%; weight increase rate (%) ([3]; 140 min): 0.00%; weight increase rate (%) ([3]; 155 min): 0.00%; weight increase rate (%) ([3]; 170 min): 0.03%; weight increase rate (%) ([3]; 185 min): 0.03%; weight increase rate (%) ([3]; 200 min): 0.06%
L-alanine methyl ester 4-ethylbenzenesulfonate [L-Ala-OMe 4-EBS salt] | – | – | – | – | – | – | – | – | – | – | – | – | – | – | – | – | – | – | – | – | weight increase rate (%) ([3]; 0 min): 0.00%; weight increase rate (%) ([3]; 10 min): 0.06%; weight increase rate (%) ([3]; 20 min): 0.06%; weight increase rate (%) ([3]; 35 min): 0.06%; weight increase rate (%) ([3]; 50 min): 0.06%; weight increase rate (%) ([3]; 65 min): 0.03%; weight increase rate (%) ([3]; 80 min): 0.06%; weight increase rate (%) ([3]; 95 min): 0.06%; weight increase rate (%) ([3]; 110 min): 0.03%; weight increase rate (%) ([3]; 125 min): 0.06%; weight increase rate (%) ([3]; 140 min): 0.06%; weight increase rate (%) ([3]; 155 min): 0.06%; weight increase rate (%) ([3]; 170 min): 0.06%; weight increase rate (%) ([3]; 185 min): 0.06%; weight increase rate (%) ([3]; 200 min): 0.06%
